According to ChEMBL document CHEMBL1154920, “Rare casbane diterpenoids from the Hainan soft coral Sinularia depressa” (J Nat Prod, 2010):

Tests used:
Staphylococcus aureus = test: Antibacterial activity against Staphylococcus aureus by broth macrodilution method; format: functional, organism-based
Escherichia coli = test: Antibacterial activity against Escherichia coli by broth macrodilution method; format: functional, organism-based
HepG2 = test: Cytotoxicity against human HepG2 cells after 72 hrs by MTT assay; format: functional, cell-based; conditions: HepG2, 72 h
SW1990 = test: Cytotoxicity against human SW1990 cells after 72 hrs by MTT assay; format: functional, cell-based; conditions: SW1990, 72 h

IC50 (Staphylococcus aureus): 17 µM
IC50 (Escherichia coli): 17 µM
SMILES: C/C1=C\[C@@H](O)C/C(C)=C/CC(=O)/C(C)=C/[C@@H]2[C@H](CC1)C2(C)C
IC50 (HepG2): 61 µM
IC50 (SW1990): 37 µM
